The text below walks through data of paper PMC5570423, “Structural characterisation of TNRC6A nuclear localisation signal in complex with importin-alpha” (PLoS ONE, 2017).

Where no end group is shown, it is not given here.

One experiment concerns mImpα1ΔIBB. The experiment in a line: In vitro GST pull-down with mouse Impα1ΔIBB. Particulars: 100 μg GST-cNLS, 250 μg Impα, glutathione resin, 4°C 1 hr, 20 mM Tris pH7.5, […] NaCl, 1 mM DTT; SDS-PAGE. The class given is binding. As to the method:
(§1) Glutathione resin (Pierce) was incubated with 100 μg of purified GST-cNLS or GST, and 250 μg of ImpA or 500 μg of ImpB at 4°C for 1 hr. Unbound protein was removed by washing beads 5 times in 500 μL binding buffer, and the bound proteins were eluted in binding buffer supplemented with 10 mM glutathione. The samples were analysed using SDS-PAGE, input lanes correspond to 1% of incubated samples and pull-down lanes correspond to 8% of eluted protein.

A further experiment relates to hImpα1ΔIBB. The experiment in a line: In vitro GST pull-down with human Impα1ΔIBB. Conditions: 100 μg GST-cNLS, 250 μg Impα, glutathione resin, 4°C 1 hr; SDS-PAGE. The class given is binding. As to the method: as §1
The next experiment deals with mouse Impβ. The experiment in a line: In vitro GST pull-down with mouse Impβ. The class given is binding. Particulars: GST-NLS with His-tagged mouse Impβ (500 μg), 4°C 1 hr; S1 Fig. As to the method: as §1
(§2) Pull-downs with GST-NLS or GST-mImpα1 full-length with His-tagged mouse and human Impβ. GST and mImpα1 served as the negative and positive controls, respectively. (EPS) Click here for additional data file.

The next experiment relates to human Impβ. Put plainly: In vitro GST pull-down with human Impβ. In kind it is binding. Conditions: GST-NLS with His-tagged human Impβ (500 μg), 4°C 1 hr; S1 Fig. As to the method:
as §1, §2

In another experiment the test system is HeLa cells. Particulars: region comprising residues 1178–1187 of the human protein; cited from earlier work. An excerpt: hTNRC6A cNLS (^1179[…]^1187; numbering according to isoform 1 and corresponds to ^926[…]^934 in isoform 2; Fig 1A) is located between the Ago-binding and UBA regions of the protein [35]. This motif is strictly conserved between mouse and humans (Fig 1B), is present in bats and hedgehogs, but appears to be absent in fish and insects.

In experiment [1] the test system is nuclear accumulation of a fluorescent reporter. Conditions: template SSGA####AG, Lys/Arg combinations predicted to bind at P2-P5; cited from earlier work. The method, then:
A detailed mutational analysis of a template monopartite NLS sequence has been reported, where all possible 16 Lys and/or Arg combinations (SSGA####AG, where # represents either Lys or Arg) predicted to bind at the P2-P5 pockets, were tested for their nuclear import activity.

Consider “NLS mutant: GST-TNRC6A cNLS with the four arginine residues substituted to Ala, as previously described (SGKKAAAEA; also: fused to GST (GST not in chain), ends not given here)”, for which the “binding to mImpα1ΔIBB in GST pull-down” value with mImpα1ΔIBB is recorded as “binding was disrupted”.
The same measure, in the same setting: under “P2 mutant: GST-TNRC6A cNLS with mTNRC6A Lys1167 mutated to Ala (SGKARRRER; also: fused to GST (GST not in chain), ends not given here)” stands “completely abolished binding”.
Take “SGKKRRRER [GST-TNRC6A cNLS, GST fusion of TNRC6A nuclear localisation signal, residues 1164–1172 of mouse TNRC6A (1179–1187 of human)]”: in the experiment on mImpα1ΔIBB, the “binding to mImpα1ΔIBB in GST pull-down” value was “sufficient to interact”. In addition, the “binding to hImpα1ΔIBB in GST pull-down” value in the experiment with hImpα1ΔIBB is reported as “sufficient to interact”. Also, in the experiment on mouse Impβ, the “pull-down of mouse Impβ” value is “not sufficient to pull-down”. Further, the “pull-down of human Impβ” value in the experiment with human Impβ is given as “not sufficient to pull-down”.
In the case of “SGKKRRRER [hTNRC6A cNLS, human TNRC6A cNLS, residues 1179–1187 of isoform 1; strictly conserved with mouse; tested earlier on a GFP reporter]”, the “nuclear localisation of a GFP reporter” value in the experiment on HeLa cells is “sufficient to induce the nuclear localisation”.
For SSGAKRRRAG, the “nuclear accumulation of a fluorescent reporter” value in experiment [1] was “Complete nuclear accumulation”.
